Assay results reported in ChEMBL document CHEMBL4261616, “Discovery of heterocyclic replacements for the coumarin core of anti-tubercular FadD32 inhibitors” (Bioorg Med Chem Lett, 2018).
Values after ≈ are worked out from the molar mass of the structure shown.

Tests used:
[1] = target: T1, Long-chain-fatty-acid--AMP ligase FadD32 (Mycobacterium tuberculosis (strain ATCC 25618 / H37Rv)) (UniProt O53580); assay: Inhibition of Mycobacterium tuberculosis H37Rv FadD32 assessed as reduction in bacterial viability after 6 days by resazurin dye based fluorescence assay
T1 sequence (whole entry): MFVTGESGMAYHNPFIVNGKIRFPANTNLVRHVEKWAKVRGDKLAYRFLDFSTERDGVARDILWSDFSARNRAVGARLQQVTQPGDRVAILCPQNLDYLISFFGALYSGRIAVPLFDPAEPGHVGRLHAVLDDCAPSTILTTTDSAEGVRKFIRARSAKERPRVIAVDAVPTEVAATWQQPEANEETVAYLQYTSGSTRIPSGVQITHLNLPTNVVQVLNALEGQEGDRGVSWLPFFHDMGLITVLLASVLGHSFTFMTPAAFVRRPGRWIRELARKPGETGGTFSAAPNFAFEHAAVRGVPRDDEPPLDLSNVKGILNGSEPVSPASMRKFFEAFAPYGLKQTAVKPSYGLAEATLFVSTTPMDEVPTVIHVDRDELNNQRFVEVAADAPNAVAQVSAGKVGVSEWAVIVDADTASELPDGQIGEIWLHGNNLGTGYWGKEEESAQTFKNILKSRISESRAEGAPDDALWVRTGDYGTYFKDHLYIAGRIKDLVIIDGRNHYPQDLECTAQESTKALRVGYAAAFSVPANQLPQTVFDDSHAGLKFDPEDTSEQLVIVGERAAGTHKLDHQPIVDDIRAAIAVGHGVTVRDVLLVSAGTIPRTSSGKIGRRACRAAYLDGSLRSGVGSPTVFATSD

[2] = Kinetic solubility of the compound at pH 7.4 by chemiluminescence nitrogen detection method; type: physicochemical; conditions: buffer, read-out: Kinetic_solubility
[3] = Metabolic stability in mouse liver microsomes at 1 uM after 60 mins by UPLC-MS/MS analysis; type: ADME, microsome; conditions: for remaining at 1 h, 1 µM: liver microsomes, read-out: Stability
[4] = Metabolic stability in human liver microsomes at 1 uM after 60 mins by UPLC-MS/MS analysis; type: ADME, microsome; conditions: for remaining at 1 h, 1 µM: liver microsomes, read-out: Stability
HepG2 = assay: Cytotoxicity against human HepG2 cells after 48 hrs by CellTiter-Glo assay; type: cell-based; conditions: HepG2, 48 h
[5] = tested on: Mycobacterium tuberculosis; assay: Antimycobacterial activity against Mycobacterium tuberculosis H37Rv infected in C57BL/6J mouse assessed as log reduction in bacterial load in lungs up to 50 mg/kg, po qd via gavage up to day 8 post infection starting from day 1 post infection measured on day 9; type: functional
[6] = tested on: Mycobacterium tuberculosis; assay: Antimycobacterial activity against Mycobacterium tuberculosis H37Rv infected in C57BL/6J mouse assessed as reduction in bacterial load in lungs administered po qd via gavage up to day 8 post infection starting from day 1 post infection measured on day 9; type: functional, organism-based
[7] = tested on: Mycobacterium tuberculosis; assay: Antimycobacterial activity against Mycobacterium tuberculosis H37Rv infected in C57BL/6J mouse assessed as 2 log reduction in bacterial load in lungs administered po qd via gavage up to day 8 post infection starting from day 1 post infection measured on day 9; type: functional
Mus musculus = assay: Toxicity in C57BL/6J mouse infected with Mycobacterium tuberculosis H37Rv assessed as mortality up to 50 mg/kg, po qd via gavage up to day 8 post infection starting from day 1 post infection measured daily; type: organism-based; conditions: in vivo
[8] = Drug level treated with 4-(4-fluorophenyl)-5,7-dimethyl-6-(4-(morpholinomethyl)phenyl)-2H-chromen-2-one under basic condition after 18 hrs at room temperature in presence of morpholine; type: physicochemical
[9] = Protein binding in mouse plasma a 5 uM after 5 hrs by UPLC-MS based rapid equilibrium dialysis method; type: ADME, cell-free
[10] = Protein binding in human plasma a 5 uM after 5 hrs by UPLC-MS based rapid equilibrium dialysis method; type: ADME, cell-free
[11] = Plasma clearance in mouse at 1 mg/kg, iv; type: ADME, organism-based
[12] = tested on: Mycobacterium tuberculosis; assay: Antimycobacterial activity against Mycobacterium tuberculosis; type: functional

SMILES	MIC90 [1]	solubility kinetic [2]	other results
Cc1cc2nccc(-c3ccccc3C(N)=O)c2c(C)c1-c1ccc(CN2CCOCC2)cc1	20 µM (≈ 9.03 µg/mL)	–	–
Cc1cc2nccc(-c3cccnc3)c2c(C)c1-c1ccc(CN2CCOCC2)cc1	5 µM (≈ 2.05 µg/mL)	209 µM (≈ 85.6 µg/mL)	–
Cc1cc2nccc(-c3cccc(Cl)c3)c2c(C)c1-c1ccc(CN2CCOCC2)cc1	1.5 µM (≈ 0.664 µg/mL)	1 µM (≈ 0.443 µg/mL)	–
Cc1cc2[nH]c(=O)cc(-c3ccccc3)c2c(C)c1-c1ccc(CN2CCOCC2)cc1	> 40 µM	–	–
CNC(=O)c1cc(-c2ccccc2Cl)c2c(C)c(-c3ccncc3)c(C)cc2n1	0.8 µM (≈ 0.322 µg/mL)	15 µM (≈ 6.03 µg/mL)	remaining at 1 h, 1 µM [3]: 19.1%; remaining at 1 h, 1 µM [4]: 19.4%; IC50 (HepG2): 60 µM; Activity [5]: 4 deltalog10CFU; Activity [6]: Dose-dependent effect; ED99 [7]: 7.8 mg/kg; Activity (Mus musculus): Non-Toxic
Cc1cc2nc(C(=O)NCCF)cc(-c3ccccc3Cl)c2c(C)c1-c1ccncc1	1.25 µM (≈ 0.542 µg/mL)	5 µM (≈ 2.17 µg/mL)	–
Cc1cc2nc(C(=O)O)cc(-c3ccccc3Cl)c2c(C)c1-c1ccncc1	80 µM (≈ 31.1 µg/mL)	226 µM (≈ 87.9 µg/mL)	–
Cc1cc2nccc(-c3ccccc3)c2c(C)c1-c1ccc(CN2CCOCC2)cc1	0.45 µM (≈ 0.184 µg/mL)	–	–
Cc1cc2occ(-c3ccccc3)c2c(C)c1-c1ccc(CN2CCOCC2)cc1	2.5 µM (≈ 0.994 µg/mL)	–	–
Cc1cc2nc(CO)cc(-c3ccccc3Cl)c2c(C)c1-c1ccncc1	3.75 µM (≈ 1.41 µg/mL)	32 µM (≈ 12 µg/mL)	–
Cc1cc2nc(C(=O)N3CCOCC3)cc(-c3ccccc3Cl)c2c(C)c1-c1ccncc1	15 µM (≈ 6.87 µg/mL)	145 µM (≈ 66.4 µg/mL)	–
Cc1cc(O)c(/C(=C\C(=O)N2CCOCC2)c2ccc(F)cc2)c(C)c1-c1ccc(CN2CCOCC2)cc1	–	–	Drug metabolism [8]: Metabolite_Detected
Cc1cc2nccc(-c3cncnc3)c2c(C)c1-c1ccc(CN2CCOCC2)cc1	2.5 µM (≈ 1.03 µg/mL)	> 230 µM	PPB [9]: 92.8%; PPB [10]: 95.2%; Stability ([3]; microsomes, 1 h, 1 µM): < 5%; Stability ([4]; microsomes, 1 h, 1 µM): 11.6%; clearance [11]: 65.1 mL/min/kg
Cc1cc2nc(C(=O)NCCO)cc(-c3ccccc3Cl)c2c(C)c1-c1ccncc1	0.3 µM (≈ 0.13 µg/mL)	25 µM (≈ 10.8 µg/mL)	remaining at 1 h, 1 µM [3]: 26.2%; remaining at 1 h, 1 µM [4]: 8%; IC50 (HepG2): 100 µM
Cc1cc2nc(C(=O)N3CCNCC3)cc(-c3ccccc3Cl)c2c(C)c1-c1ccncc1	10 µM (≈ 4.57 µg/mL)	–	–
Cc1cc2nc(C(=O)N3CCCC3)cc(-c3ccccc3Cl)c2c(C)c1-c1ccncc1	5 µM (≈ 2.21 µg/mL)	41 µM (≈ 18.1 µg/mL)	–
CCOC(=O)c1cc(-c2ccccc2Cl)c2c(C)c(-c3ccncc3)c(C)cc2n1	10 µM (≈ 4.17 µg/mL)	9 µM (≈ 3.75 µg/mL)	–
Cc1cc2nccc(-c3ccc(Cl)cc3)c2c(C)c1-c1ccc(CN2CCOCC2)cc1	> 80 µM	–	–

SMILES	MIC90 [1]	solubility kinetic [2]	other results
Cc1cc2nccc(-c3ccnn3C)c2c(C)c1-c1ccc(CN2CCOCC2)cc1	2.5 µM (≈ 1.03 µg/mL)	243 µM (≈ 100 µg/mL)	–
COc1cccc(-c2ccnc3cc(C)c(-c4ccc(CN5CCOCC5)cc4)c(C)c23)c1Cl	10 µM (≈ 4.73 µg/mL)	2 µM (≈ 0.946 µg/mL)	–
Cc1cc2nccc(-c3ccccc3Cl)c2c(C)c1-c1ccncc1	5 µM (≈ 1.72 µg/mL)	21 µM (≈ 7.24 µg/mL)	–
Cc1cc2nc(C(=O)NC(C)C)cc(-c3ccccc3Cl)c2c(C)c1-c1ccncc1	2.5 µM (≈ 1.07 µg/mL)	4 µM (≈ 1.72 µg/mL)	–
Cc1cc2nc(C(N)=O)cc(-c3ccccc3Cl)c2c(C)c1-c1ccncc1	1.25 µM (≈ 0.485 µg/mL)	8 µM (≈ 3.1 µg/mL)	–
Cc1cc2nc(C(=O)N(C)C)cc(-c3ccccc3Cl)c2c(C)c1-c1ccncc1	20 µM (≈ 8.32 µg/mL)	157 µM (≈ 65.3 µg/mL)	–
Cc1cc2oc(=O)cc(-c3ccccc3)c2c(C)c1-c1ccc(CN2CCOCC2)cc1	–	–	MIC90 [12]: 0.24 to 5.6 µM (≈ 0.102 to 2.38 µg/mL)
Cc1cc2oc(=O)cc(-c3cccc(N)c3)c2c(C)c1-c1ccc(CN2CCOCC2)cc1	–	–	MIC90 [12]: 0.24 to 5.6 µM (≈ 0.106 to 2.47 µg/mL)
Cc1cc2nccc(-c3ccccc3C(=O)O)c2c(C)c1-c1ccc(CN2CCOCC2)cc1	40 µM (≈ 18.1 µg/mL)	222 µM (≈ 100 µg/mL)	–
Cc1cc2nc(C(=O)NCCN(C)C)cc(-c3ccccc3Cl)c2c(C)c1-c1ccncc1	0.3 µM (≈ 0.138 µg/mL)	263 µM (≈ 121 µg/mL)	remaining at 1 h, 1 µM [3]: 24%; remaining at 1 h, 1 µM [4]: 3.2%; IC50 (HepG2): 16 µM
Cc1cc2oc(=O)cc(-c3ccccc3)c2c(C)c1-c1ccncc1	–	–	MIC90 [12]: 0.24 to 5.6 µM (≈ 0.0786 to 1.83 µg/mL)
Cc1cccc(C)c1-c1ccnc2cc(C)c(-c3ccc(CN4CCOCC4)cc3)c(C)c12	5 µM (≈ 2.18 µg/mL)	–	–
COc1ccncc1-c1ccnc2cc(C)c(-c3ccc(CN4CCOCC4)cc3)c(C)c12	2.5 µM (≈ 1.1 µg/mL)	169 µM (≈ 74.3 µg/mL)	–
Cc1cc2nccc(-c3ccccc3C#N)c2c(C)c1-c1ccc(CN2CCOCC2)cc1	2.5 µM (≈ 1.08 µg/mL)	24 µM (≈ 10.4 µg/mL)	–
Cc1cc2nccc(-c3ccccc3Cl)c2c(C)c1-c1ccc(CN2CCOCC2)cc1	0.3 µM (≈ 0.133 µg/mL)	–	–
CCc1ccccc1CNc1ccnc2cc(C)c(-c3ccc(CN4CCOCC4)cc3)c(C)c12	2.5 µM (≈ 1.16 µg/mL)	59 µM (≈ 27.5 µg/mL)	–
Cc1cc2nc(C(C)(C)O)cc(-c3ccccc3Cl)c2c(C)c1-c1ccncc1	> 40 µM	38 µM (≈ 15.3 µg/mL)	–
COc1ncccc1-c1ccnc2cc(C)c(-c3ccc(CN4CCOCC4)cc3)c(C)c12	2.5 µM (≈ 1.1 µg/mL)	1 µM (≈ 0.44 µg/mL)	–
